Reference: patent US20100087385A1 (priority 2006, published 2010)

System: TNBS induced IBD rats
Test: Experiment III: TNBS-ethanol induced IBD in rats
Format: in vivo, Wistar rats
Details: for Colonic lesion score: CON 0, M 6.00 ± 3.25; for Colon weight of length: CON 0.106 ± 0.011, M 0.376 ± 0.133; for MDA / MPO / SOD: colon homogenate; for MDA: CON 0.0360 ± 0.00632, M 0.0274 ± 0.0055; for MPO: CON 21.993 ± 2.061, M 134.038 ± 1.979; for SOD: CON 46.400 ± 8.202, M 38.005 ± 4.121
Text: Wister rats were randomly divided into seven groups. There are four […] in each group, including normal control (CON) group, Model (M) group, positive control (SASP) group, diammonium glycyrrhizinate gavage administration (DI) group, diammonium glycyrrhizinate low dose (DGD) group, diammonium glycyrrhizinate medium dose (DGZ) group, and diammonium glycyrrhizinate high dose (DGG) group. No water and diets restriction were applied to mice during the period of the experiment.
Rats were anesthetized by ether. TNBS dissolved in 30% ethanol were injected into rat colon 8 cm in depth through anus with an i.v. tubing. The concentration of TNBS was 100 mg/Kg at the volumes of 0.20 ml/100 g. The rats were held up side down for 1 minute after the injection before released back to the cages.
There are seven groups total in this test. Rats in all groups were treated identically to create IBD models and the experimental conditions are described in the following.
Normal control (Con) group: Both TNBS-ethanol solution and treated drugs were replaced by normal saline. The dose of drug for treatment was 0.20 ml/100 g. Model (M) group: After creating the TNBS-ethanol induced IBD model in rats, normal saline instead of drug was used as a blank control for the comparison of drug treatment. The drug dose of IBD treatment was 0.20 ml/100 g. SASP group: SASP (22.5 mg/100 g) was used as a positive control. SASP was applied to rats through anus after ether anesthesia. Diammonium glycyrrhetate gavage administration (DI) group: Diammonium glycyrrhetate (10 mg/kg) was provided to rats by gavage after ether anesthesia. Diammonium glycyrrhetate, anal administration, low dose (DGD) group: Diammonium glycyrrhetate (2 mg/kg) was provided to rats through anus after ether anesthesia. Diammonium glycyrrhetate, anal administration, medium dose (DGZ) group: Diammonium glycyrrhetate (10 mg/kg) was provided to rats through anus after ether anesthesia. Diammonium glycyrrhetate, anal administration, high dose (DGG) group: Diammonium glycyrrhetate (50 mg/kg) was provided to rats through anus after ether anesthesia.
During the experimental period, daily activities and body weights of rats were investigated and recorded. Ten days after IBD model establishment, fasting was introduced to rats but water was provided continuously. Before sacrificing the rats, feces samples were taken for OB test; eyeballs were removed for blood sampling and serum samples were obtained after centrifugation. Radioimmunoassay kits were used to detect IL-1β, IL-6 and TNF-α in serum. The rats were cervical executed; organs of spleen and thymus were removed and weighted for the index calculation. The whole length of colon was weighted; weight per unit length of colon was calculated. The degrees of colon injury were evaluated according to the reference 23 with some modifications. We included the changes of intestinal adhesion, colon ulcer, and inflammatory as the score marks. The standard of score is same as we mentioned previously. The 3 mm colon samples were taken from the end part of colon; fixed by either neutral formaldehyde solution or 2.5% of glutaraldehyde solution for anatomy dissecting. The samples fixed by neutral formaldehyde solution were sent to perform H-E staining and immunohistochemical staining (IL-10, COX-II, and ICAM-1). The samples fixed by 2.5% of glutaraldehyde solution were photo-imaged by both scanning electron microscope and transmission electron microscope. The rest of samples were handled at ice-cold temperature to make 10% homogenization solution and stored at −20° C. for future use. MOP, SOD, MDA and amounts of tissue proteins were determined by Maehly, Pyrogallol, TBA, and Lowry methods.

[1] = DG medium dose group, through anus 10 mg/kg
[2] = DGD group: through anus, low dose 2 mg/kg
[3] = DGG group: through anus, high dose 50 mg/kg
[4] = DGZ group: through anus, medium dose 10 mg/kg
[5] = SASP group: 22.5 mg/100 g through anus
[6] = positive control (SASP) group: 22.5 mg/100 g through anus

Structure (SMILES): CC1(C(=O)[O-])CCC2(C)CCC3(C)C(=CC(=O)C4C5(C)CCC([O-])C(C)(C)C5CCC43C)C2C1.[Na+].[Na+] (stereo not shown) [Disodium glycyrrhetate, disodium glycyrrhetate]
- HE staining of colon tissue (FIG. 3) (DG gavage administration group, 10 mg/kg): less severe of symptoms with no ulcer formation
- HE staining of colon tissue (FIG. 3) (DG high dose group, through anus 50 mg/kg): relieved symptoms and no ulcer formation is observed
- HE staining of colon tissue (FIG. 3) (DG low dose group, through anus 2 mg/kg): relatively severe symptoms but without ulcer formation
- HE staining of colon tissue (FIG. 3) [1]: no ulcer formation is seen
- colon mucosa by scanning electron microscope (FIG. 4) [1]: relieved symptoms with less swelling
- Colonic lesion score (DGD group: through anus, low dose 2 mg/kg (table head: mg/100 g)): 3.00 ± 1.69^ΔΔ
- Colon weight of length [2]: 0.385 ± 0.218 g/cm
- Colonic lesion score (DGG group: through anus, high dose 50 mg/kg (table head: mg/100 g)): 1.50 ± 0.89^ΔΔ
- Colon weight of length [3]: 0.174 ± 0.059 g/cm
- Colonic lesion score (DGZ group: through anus, medium dose 10 mg/kg (table head: mg/100 g)): 2.50 ± 1.39^ΔΔ
- Colon weight of length [4]: 0.177 ± 0.065 g/cm
- Colonic lesion score (DI group: gavage, 10 mg/kg (table head: mg/100 g)): 2.00 ± 1.20^ΔΔ
- Colon weight of length (DI group: gavage, 10 mg/kg): 0.240 ± 0.085 g/cm
- MDA [2]: 0.0431 ± 0.0243 µmol/mg
- MPO [2]: 141.993 ± 2.494 U/g
- SOD [2]: 28.847 ± 16.942 U/ml
- MDA [3]: 0.0338 ± 0.0115 µmol/mg
- MPO [3]: 111.753 ± 24.864 U/g
- SOD [3]: 59.984 ± 3.205^Δ U/ml
- MDA [4]: 0.0365 ± 0.0151 µmol/mg
- MPO [4]: 83.868 ± 16.465^Δ U/g
- SOD [4]: 46.095 ± 8.065 U/ml
- MDA (DI group: gavage, 10 mg/kg): 0.0907 ± 0.0302 µmol/mg
- MPO (DI group: gavage, 10 mg/kg): 100.576 ± 10.137^ΔΔ U/g
- SOD (DI group: gavage, 10 mg/kg): 18.774 ± 8.700 U/ml

Structure (SMILES): O=C(O)c1cc(/N=N/c2ccc(S(=O)(=O)Nc3ccccn3)cc2)ccc1O [SASP, Sulfasalazine, reference compound]
- Colonic lesion score [5]: 3.00 ± 1.69^ΔΔ
- Colon weight of length [5]: 0.354 ± 0.087 g/cm
- Thymus index (SASP group: 22.5 mg/100 g through anus, CON 0.9302 ± 0.0984, M 0.0319 ± 0.1504): 0.2375 ± 0.0792 mg/g
- Spleen index (SASP group: 22.5 mg/100 g through anus, CON 2.309 ± 0.135, M 3.893 ± 0.210): 3.326 ± 0.552 mg/g
- MDA [5]: 0.0594 ± 0.0287 µmol/mg
- MPO [5]: 44.916 ± 3.525^ΔΔ U/g
- SOD [5]: 33.884 ± 2.656 U/ml
- HE staining of colon tissue (FIG. 3) [6]: symptoms are reduced with no ulcers formation
- colon mucosa by scanning electron microscope (FIG. 4) [6]: symptoms were relieved but with swelling in mucosa layer
